Results reported in US12077503B2, “Substituted cyclic amides and their use as herbicides” (FMC CORPORATION, priority 2015, dated 2024).

Legend:
Type in all cases: in vivo
[1] = test system: Galium (catchweed bedstraw, Galium aparine); assay: Test A postemergence; conditions: Galium, post-emergence, 240 h, 125 g ai/ha, postemergence; visual injury after approximately 10 d; 0 to 100 scale (0 no effect, 100 complete control); read-out: Plant response rating, Galium
Outline: (§1)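 Each rating is a visual injury score from 0 to 100 given about 10 d after treatment, judged against untreated controls kept alongside in the greenhouse. In loam soil–sand blend, seeds got a preemergence directed soil spray, while postemergence plants were 2 to 10 cm tall at spraying.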

[2] = test system: wheat (Triticum aestivum); assay: Test A postemergence; conditions: Triticum aestivum, post-emergence, 240 h, 125 g ai/ha, postemergence; visual injury after approximately 10 d; 0 to 100 scale (0 no effect, 100 complete control); read-out: Plant response rating, Wheat
Outline: as §1

[3] = test system: barnyardgrass (Echinochloa crus-galli); assay: Test A postemergence; conditions: Echinochloa crus-galli, post-emergence, 240 h, 125 g ai/ha, postemergence; visual injury after approximately 10 d; 0 to 100 scale (0 no effect, 100 complete control); read-out: Plant response rating, Barnyardgrass
Outline: as §1

[4] = test system: giant foxtail (Setaria faberii); assay: Test A postemergence; conditions: Setaria faberi, post-emergence, 240 h, 125 g ai/ha, postemergence; visual injury after approximately 10 d; 0 to 100 scale (0 no effect, 100 complete control); read-out: Plant response rating, Foxtail, Giant
Outline: as §1

[5] = test system: ragweed (common ragweed, Ambrosia elatior); assay: Test A preemergence; conditions: Ambrosia artemisiifolia, pre-emergence, 240 h, preemergence, read-out: Plant response rating, Ragweed; for pest or weed control at 125 g/ha: 125 g ai/ha, visual rating after approx. 10 d, 0 to 100 scale where 0 is no effect and 100 is complete control; for pest or weed control at 500 g/ha: 500 g ai/ha, 0 to 100 scale, 0 = no effect, 100 = complete control
Outline: as §1

[6] = test system: Kochia (Kochia scoparia); assay: Test A preemergence; conditions: Bassia scoparia, pre-emergence, 240 h, preemergence, read-out: Plant response rating, Kochia; for pest or weed control at 125 g/ha: 125 g ai/ha, visual rating after approx. 10 d, 0 to 100 scale where 0 is no effect and 100 is complete control; for pest or weed control at 500 g/ha: 500 g ai/ha, 0 to 100 scale, 0 = no effect, 100 = complete control
Outline: as §1

[7] = test system: pigweed (Amaranthus retroflexus); assay: Test A preemergence; conditions: Amaranthus retroflexus, pre-emergence, 240 h, preemergence, read-out: Plant response rating, Pigweed; for pest or weed control at 125 g/ha: 125 g ai/ha, visual rating after approx. 10 d, 0 to 100 scale where 0 is no effect and 100 is complete control; for pest or weed control at 500 g/ha: 500 g ai/ha, 0 to 100 scale, 0 = no effect, 100 = complete control
[8] = test system: barnyardgrass (Echinochloa crus-galli); assay: Test A preemergence; conditions: Echinochloa crus-galli, pre-emergence, 240 h, preemergence, read-out: Plant response rating, Barnyardgrass; for pest or weed control at 125 g/ha: 125 g ai/ha, visual rating after approx. 10 d, 0 to 100 scale where 0 is no effect and 100 is complete control; for pest or weed control at 500 g/ha: 500 g ai/ha, 0 to 100 scale, 0 = no effect, 100 = complete control
Outline: as §1

[9] = test system: ryegrass, Italian (Italian ryegrass, Lolium multiflorum); assay: Test A preemergence; conditions: Lolium multiflorum, pre-emergence, 240 h, preemergence, read-out: Plant response rating, Ryegrass, Italian; for pest or weed control at 125 g/ha: 125 g ai/ha, visual rating after approx. 10 d, 0 to 100 scale where 0 is no effect and 100 is complete control; for pest or weed control at 500 g/ha: 500 g ai/ha, 0 to 100 scale, 0 = no effect, 100 = complete control
Outline: as §1

[10] = test system: giant foxtail (Setaria faberii); assay: Test A preemergence; conditions: Setaria faberi, pre-emergence, 240 h, preemergence, read-out: Plant response rating, Foxtail, Giant; for pest or weed control at 125 g/ha: 125 g ai/ha, visual rating after approx. 10 d, 0 to 100 scale where 0 is no effect and 100 is complete control; for pest or weed control at 500 g/ha: 500 g ai/ha, 0 to 100 scale, 0 = no effect, 100 = complete control
Outline: as §1

[11] = test system: rice (Oryra sativa); assay: Test B flooded paddy test; conditions: Oryza sativa, Flood, 250 g ai/ha; scale of 0 to 100 where 0 is no effect and 100 is complete control; read-out: Rice plant response rating
Outline: (§2)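 Response scored visually against untreated controls, 0 = no effect and 100 = complete control, 13–15 d after treatment in the greenhouse. Compounds added to paddy water held 3 cm above soil surface. Treatment given at 2-leaf stage.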

[12] = test system: ducksalad (Heteranthera limosa); assay: Test B flooded paddy test; conditions: Heteranthera limosa, Flood, 250 g ai/ha; scale of 0 to 100 where 0 is no effect and 100 is complete control; read-out: Ducksalad plant response rating
Outline: as §2

[13] = test system: sedge, umbrella (small-flower umbrella sedge, Cyperus difformis); assay: Test B flooded paddy test; conditions: Cyperus difformis, Flood, 250 g ai/ha; scale of 0 to 100 where 0 is no effect and 100 is complete control; read-out: Sedge, Umbrella plant response rating
Outline: as §2

[14] = test system: barnyardgrass (Echinochloa crus-galli); assay: Test B flooded paddy test; conditions: Echinochloa crus-galli, Flood, 250 g ai/ha; scale of 0 to 100 where 0 is no effect and 100 is complete control; read-out: Barnyardgrass plant response rating
Outline: as §2

Compound	pest or weed control at 125 g/ha [1]	plant injury at 125 g/ha [2]	pest or weed control at 125 g/ha [3]	pest or weed control at 125 g/ha [4]	pest or weed control at 125 g/ha [5]	pest or weed control at 500 g/ha [5]	pest or weed control at 125 g/ha [6]	pest or weed control at 500 g/ha [6]	pest or weed control at 125 g/ha [7]	pest or weed control at 500 g/ha [7]	pest or weed control at 125 g/ha [8]	pest or weed control at 500 g/ha [8]	pest or weed control at 125 g/ha [9]	pest or weed control at 500 g/ha [9]	pest or weed control at 125 g/ha [10]	pest or weed control at 500 g/ha [10]	pest or weed control at 250 g/ha [11]	pest or weed control at 250 g/ha [12]	pest or weed control at 250 g/ha [13]	pest or weed control at 250 g/ha [14]
Cc1ccc([C@H]2CNC(=O)[C@@H]2C(=O)Nc2cccc(F)c2F)c(F)c1 [Compound 720]	50%	0%	90%	20%	0%	80%	20%	70%	0%	0%	90%	100%	0%	20%	60%	90%	0%	100%	0%	30%
C=CCN1C[C@H](c2ccc(OC)c(F)c2)[C@@H](C(=O)Nc2cccc(F)c2F)C1=O [Compound 722]	0%	0%	20%	0%	0%	0%	0%	0%	0%	0%	20%	80%	0%	0%	50%	80%	0%	0%	0%	0%
C=CCN1C[C@H](c2ccc(OC)c(F)c2)[C@@H](C(=O)Nc2ccccc2S(C)(=O)=O)C1=O [Compound 724]	0%	0%	0%	0%	0%	0%	0%	0%	0%	0%	0%	0%	0%	0%	0%	0%	0%	0%	0%	0%
Cc1cc([C@H]2CNC(=O)[C@@H]2C(=O)Nc2ccc(F)cc2F)ccc1Br [Compound 725]	20%	0%	70%	0%	0%	0%	0%	50%	0%	0%	90%	90%	0%	20%	90%	90%	0%	100%	0%	0%
